Data as given in patent US20100160335A1, “PYRIDAZINONE DERIVATIVE AND PDE INHIBITOR CONTAINING THE SAME AS ACTIVE INGREDIENT” (KYORIN PHARMACEUTICAL CO., LTD., priority 2007, published 2010).

Key:
[1] = target: T1, PDE3A catalytic domain (PDE3Acat) (Homo sapiens, UniProt Q14432); assay: Phosphodiesterase inhibitory activity, PDE3 ([3H]cAMP, recombinant enzyme); format: biochemical; details: 30° C., 20 minutes, read-out: IC50(μmol/L) PDE3
T1 construct: made in house; host or cells: Sf9 insect cells (baculovirus, Bac-to-Bac / Gateway)
T1 sequence (Q14432 674-1093 limits assumed): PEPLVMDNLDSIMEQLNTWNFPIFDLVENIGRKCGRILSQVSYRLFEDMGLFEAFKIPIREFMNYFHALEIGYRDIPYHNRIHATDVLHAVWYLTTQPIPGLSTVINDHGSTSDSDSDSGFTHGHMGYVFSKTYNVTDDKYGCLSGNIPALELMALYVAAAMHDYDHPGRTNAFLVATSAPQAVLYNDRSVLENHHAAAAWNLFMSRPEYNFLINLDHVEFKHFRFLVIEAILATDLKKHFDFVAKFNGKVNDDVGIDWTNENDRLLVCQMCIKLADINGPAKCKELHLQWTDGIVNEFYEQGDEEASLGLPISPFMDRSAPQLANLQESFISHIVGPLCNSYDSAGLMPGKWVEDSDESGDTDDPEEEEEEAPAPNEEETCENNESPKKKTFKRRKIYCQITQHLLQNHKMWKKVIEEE

PDE4Bcat = target: T2, PDE4Bcat (Homo sapiens, UniProt Q07343); assay: Phosphodiesterase inhibitory activity, PDE4 ([3H]cAMP, recombinant enzyme); format: biochemical; details: 30° C., 20 minutes, read-out: IC50(μmol/L) PDE4
T2 construct: made in house; host or cells: Sf9 insect cells (baculovirus, Bac-to-Bac / Gateway)
T2 sequence (Q07343 330-659 limits assumed): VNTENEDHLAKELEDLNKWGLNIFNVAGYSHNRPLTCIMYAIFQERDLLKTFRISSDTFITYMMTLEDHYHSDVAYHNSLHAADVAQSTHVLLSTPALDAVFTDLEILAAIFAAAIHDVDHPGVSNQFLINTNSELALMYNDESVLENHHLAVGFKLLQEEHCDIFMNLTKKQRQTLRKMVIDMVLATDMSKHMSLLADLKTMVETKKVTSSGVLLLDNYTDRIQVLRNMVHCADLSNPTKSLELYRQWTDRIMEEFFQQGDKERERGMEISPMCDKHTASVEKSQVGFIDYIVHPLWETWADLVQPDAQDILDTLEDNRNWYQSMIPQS

Question: Which results are given for `CCc1ccc2c(C3=NN(CCCCOc4ccc(C5=NNC(=O)CC5C)cc4)C(=O)CC3C)ccc(OC)c2n1` (single isomer, unassigned) [Example 341, 6-(2-Ethyl-8-methoxyquinolin-5-yl)-5-methyl-2-[4-[4-(4-methyl-6-oxo-1,4,5,6-tetrahydropyridazin-3-yl)phenoxy]butyl]-4,5-dihydro-2H-pyridazin-3-one]?
Answer: IC50 [1]: 1 to 10 µmol/L; IC50 (PDE4Bcat): < 0.1 µmol/L

Question: Which results are given for `CCc1ccc2c(-c3ccc(=O)n(CCCCOc4ccc(C5=NNC(=O)CC5C)cc4F)n3)ccc(OC)c2n1` (single isomer, unassigned; (+)) [Example 328, (+)-6-(2-Ethyl-8-methoxyquinolin-5-yl)-2-[4-[2-fluoro-4-(4-methyl-6-oxo-1,4,5,6-tetrahydropyridazin-3-yl)phenoxy]butyl]-2H-pyridazin-3-one]?
Answer: IC50 [1]: < 0.1 µmol/L; IC50 (PDE4Bcat): 0.1 to 1 µmol/L

Question: For `CCc1ccc2c(-c3ccc(=O)n(CCCCOc4ccc(C5=NNC(=O)CC5C)cc4F)n3)ccc(OC)c2n1` (single isomer, unassigned; (-)) [Example 329, (−)-6-(2-Ethyl-8-methoxyquinolin-5-yl)-2-[4-[2-fluoro-4-(4-methyl-6-oxo-1,4,5,6-tetrahydropyridazin-3-yl)phenoxy]butyl]-2H-pyridazin-3-one], which IC50 [1] is on record?
Answer: Its IC50 is less than 0.1 µmol/L.

Question: What about the IC50 (PDE4Bcat) of the same molecule?
Answer: The IC50 was less than 0.1 µmol/L.

Question: Which IC50 [1] does the source give for `COc1ccc(-c2ccc(=O)n(CCCCOc3ccc(C4=NNC(=O)CC4C)cc3)n2)c2ccc(C)nc12` (stereo not shown) [Example 268, 6-(8-Methoxy-2-methylquinolin-5-yl)-2-[4-[4-(4-methyl-6-oxo-1,4,5,6-tetrahydropyridazin-3-yl)phenoxy]butyl]-2H-pyridazin-3-one] here?
Answer: The IC50 was 0.1 to 1 µmol/L.

Question: And the IC50 (PDE4Bcat)?
Answer: Its IC50 is 0.1 to 1 µmol/L.

Question: With `COc1ccc(-c2ccc(=O)n(CCCCOc3ccc(C4=NNC(=O)CC4C)cc3)n2)c2ccc(C(C)C)nc12` (stereo not shown) [Example 270, 6-(8-Methoxy-2-isopropylquinolin-5-yl)-2-[4-[4-(4-methyl-6-oxo-1,4,5,6-tetrahydropyridazin-3-yl)phenoxy]butyl]-2H-pyridazin-3-one] as the molecule, how does the IC50 [1] read?
Answer: The IC50 was less than 0.1 µmol/L.

Question: And the IC50 (PDE4Bcat)?
Answer: The IC50 was 0.1 to 1 µmol/L.

Question: Which IC50 [1] does the source give for `COc1ccc(-c2ccc(=O)n(CCCCOc3ccc(C4=NNC(=O)CC4)c(F)c3F)n2)c2cc(C(F)(F)F)oc12` [Example 274, 2-[4-[2,3-Difluoro-4-(6-oxo-1,4,5,6-tetrahydropyridazin-3-yl)phenoxy]butyl]-6-(7-methoxy-2-trifluoromethylbenzofuran-4-yl)-2H-pyridazin-3-one] here?
Answer: The IC50 was less than 0.1 µmol/L.

Question: And the IC50 (PDE4Bcat)?
Answer: Its IC50 is less than 0.1 µmol/L.

Question: For `COc1ccc(-c2ccc(=O)n(CCCCOc3ccc(C4=NNC(=O)C4(C)C)c(F)c3F)n2)c2cc(C(F)(F)F)oc12` [Example 275, 2-[4-[2,3-Difluoro-4-(4,4-dimethyl-5-oxo-4,5-dihydro-1H-pyrazol-3-yl)phenoxy]butyl]-6-(7-methoxy-2-trifluoromethylbenzofuran-4-yl)-2H-pyridazin-3-one], which IC50 [1] is on record?
Answer: Its IC50 is less than 0.1 µmol/L.

Question: What about the IC50 (PDE4Bcat) of the same molecule?
Answer: The IC50 was 0.1 to 1 µmol/L.

Question: With `COc1ccc(-c2ccc(=O)n(CCCCOc3ccc(C4=NNC(=O)CC4C)c(F)c3F)n2)c2cc(C(F)(F)F)oc12` (stereo not shown) [Example 276, 2-[4-[2,3-Difluoro-4-(4-methyl-6-oxo-1,4,5,6-tetrahydropyridazin-3-yl)phenoxy]butyl]-6-(7-methoxy-2-trifluoromethylbenzofuran-4-yl)-2H-pyridazin-3-one] as the molecule, how does the IC50 [1] read?
Answer: The IC50 was less than 0.1 µmol/L.

Question: What about the IC50 (PDE4Bcat) of the same molecule?
Answer: Its IC50 is 0.1 to 1 µmol/L.

Question: What does the source list for `CCc1ccc2c(-c3ccc(=O)n(CCCCOc4ccc(C5=NNC(=O)CC5C)cc4)n3)ccc(OC)c2n1` (stereo not shown) [Example 280, 6-(2-ethyl-8-Methoxyquinolin-5-yl)-2-[4-[4-(4-methyl-6-oxo-1,4,5,6-tetrahydropyridazin-3-yl)phenoxy]butyl]-2H-pyridazin-3-one]?
Answer: IC50 [1]: < 0.1 µmol/L; IC50 (PDE4Bcat): 0.1 to 1 µmol/L

Question: With `CCc1ccc2c(-c3ccc(=O)n(CCCCOc4ccc(C5=NNC(=O)CC5)cc4)n3)ccc(OC)c2n1` [Example 281, 6-(2-Ethyl-8-methoxyquinolin-5-yl)-2-[4-[4-(6-oxo-1,4,5,6-tetrahydropyridazin-3-yl)phenoxy]butyl]-2H-pyridazin-3-one] as the molecule, how does the IC50 [1] read?
Answer: The IC50 was 0.1 to 1 µmol/L.

Question: What about the IC50 (PDE4Bcat) of the same molecule?
Answer: Its IC50 is 0.1 to 1 µmol/L.

Question: Which IC50 [1] does the source give for `CCc1ccc2c(-c3ccc(=O)n(CCCCOc4ccc(C5=NNC(=O)C5(C)C)cc4)n3)ccc(OC)c2n1` [Example 282, 6-(2-Ethyl-8-methoxyquinolin-5-yl)-2-[4-[4-(4,4-dimethyl-5-oxo-4,5-dihydro-1H-pyrazol-3-yl)phenoxy]butyl]-2H-pyridazin-3-one] here?
Answer: Its IC50 is no less than 10 µmol/L.

Question: And the IC50 (PDE4Bcat)?
Answer: Its IC50 is 0.1 to 1 µmol/L.

Question: For `CCc1ccc2c(-c3ccc(=O)n(CCCCOc4ccc(C5=NNC(=O)CC5)cc4F)n3)ccc(OC)c2n1` [Example 284, 6-(2-Ethyl-8-methoxyquinolin-5-yl)-2-[4-[2-fluoro-4-(6-oxo-1,4,5,6-tetrahydropyridazin-3-yl)phenoxy]butyl]-2H-pyridazin-3-one], which IC50 [1] is on record?
Answer: The IC50 was less than 0.1 µmol/L.

Question: And the IC50 (PDE4Bcat)?
Answer: The IC50 was 0.1 to 1 µmol/L.

Question: How did the IC50 [1] turn out when `CCc1ccc2c(-c3ccc(=O)n(CCCCOc4ccc(C5=NNC(=O)C5(C)C)cc4F)n3)ccc(OC)c2n1` [Example 285, 6-(2-Ethyl-8-methoxyquinolin-5-yl)-2-[4-[2-fluoro-4-(4,4-dimethyl-5-oxo-4,5-dihydro-1H-pyrazol-3-yl)phenoxy]butyl]-2H-pyridazin-3-one] was run?
Answer: Its IC50 is 1 to 10 µmol/L.

Question: What about the IC50 (PDE4Bcat) of the same molecule?
Answer: The IC50 was 1 to 10 µmol/L.

Question: `CCc1ccc2c(-c3ccc(=O)n(CCCCOc4ccc(C5=NNC(=O)C5(C)C)cc4OC)n3)ccc(OC)c2n1` [Example 286, 6-(2-Ethyl-8-methoxyquinolin-5-yl)-2-[4-[2-methoxy-4-(4,4-dimethyl-5-oxo-4,5-dihydro-1H-pyrazol-3-yl)phenoxy]butyl]-2H-pyridazin-3-one] was tested. Which IC50 [1] did it give?
Answer: The IC50 was no less than 10 µmol/L.

Question: What about the IC50 (PDE4Bcat) of the same molecule?
Answer: The IC50 was 1 to 10 µmol/L.

Question: With `CCc1ccc2c(C3=NN(CCCCOc4ccc(C5=NNC(=O)C5(C)C)cc4F)C(=O)CC3C)ccc(OC)c2n1` (stereo not shown) [Example 302, 6-(2-Ethyl-8-methoxyquinolin-5-yl)-5-methyl-2-[4-[2-fluoro-4-(4,4-dimethyl-5-oxo-4,5-dihydro-1H-pyrazol-3-yl)phenoxy]butyl]-4,5-dihydro-2H-pyridazin-3-one] as the molecule, how does the IC50 [1] read?
Answer: The IC50 was 1 to 10 µmol/L.

Question: And the IC50 (PDE4Bcat)?
Answer: The IC50 was less than 0.1 µmol/L.

Question: How did the IC50 [1] turn out when `COc1ccc(-c2ccc(=O)n(CCCCOc3ccc(C4=NNC(=O)C4(C)C)c(F)c3F)n2)c2nc(C(F)(F)F)nn12` [Example 306, 2-[4-[2,3-Difluoro-4-(4,4-dimethyl-5-oxo-4,5-dihydro-1H-pyrazol-3-yl)phenoxy]butyl]-6-(5-methoxy-2-trifluoromethyl-[1,2,4]triazolo[1,5-a]pyridin-8-yl)-2H-pyridazin-3-one] was run?
Answer: Its IC50 is 1 to 10 µmol/L.

Question: And the IC50 (PDE4Bcat)?
Answer: Its IC50 is 1 to 10 µmol/L.

Question: Which results are given for `COc1ccc(-c2ccc(=O)n(CCCCOc3ccc(C4=NNC(=O)CC4C)c(F)c3F)n2)c2sc(C(F)(F)F)nc12` (stereo not shown) [Example 307, 2-[4-[2,3-Difluoro-4-(4-methyl-6-oxo-1,4,5,6-tetrahydropyridazin-3-yl)phenoxy]butyl]-6-(4-methoxy-2-trifluoromethylbenzothiazol-7-yl)-2H-pyridazin-3-one]?
Answer: IC50 [1]: < 0.1 µmol/L; IC50 (PDE4Bcat): < 0.1 µmol/L

Question: What does the source list for `COc1ccc(-c2ccc(=O)n(CCCCOc3ccc(C4=NNC(=O)CC4)c(F)c3F)n2)c2sc(C(F)(F)F)nc12` [Example 308, 2-[4-[2,3-Difluoro-4-(6-oxo-1,4,5,6-tetrahydropyridazin-3-yl)phenoxy]butyl]-6-(4-methoxy-2-trifluoromethylbenzothiazol-7-yl)-2H-pyridazin-3-one]?
Answer: IC50 [1]: < 0.1 µmol/L; IC50 (PDE4Bcat): < 0.1 µmol/L

Question: With `COc1ccc(-c2ccc(=O)n(CCCCOc3ccc(C4=NNC(=O)C4(C)C)c(F)c3F)n2)c2sc(C(F)(F)F)nc12` [Example 309, 2-[4-[2,3-Difluoro-4-(4,4-dimethyl-5-oxo-4,5-dihydro-1H-pyrazol-3-yl)phenoxy]butyl]-6-(4-methoxy-2-trifluoromethylbenzothiazol-7-yl)-2H-pyridazin-3-one] as the molecule, how does the IC50 [1] read?
Answer: The IC50 was less than 0.1 µmol/L.

Question: What about the IC50 (PDE4Bcat) of the same molecule?
Answer: The IC50 was less than 0.1 µmol/L.

Question: `COc1ccc(C2=NN(CCCCOc3ccc(C4=NNC(=O)CC4C)cc3)C(=O)CC2C)c2cc(C(F)(F)F)oc12` (stereo not shown) [Example 310] was tested. Which IC50 [1] did it give?
Answer: Its IC50 is 0.1 to 1 µmol/L.

Question: What about the IC50 (PDE4Bcat) of the same molecule?
Answer: Its IC50 is less than 0.1 µmol/L.

Question: `COc1ccc(C2=NN(CCCCOc3ccc(C4=NNC(=O)CC4C)cc3)C(=O)CC2C)c2cc(C(F)(F)F)sc12` (stereo not shown) [Example 311] was tested. Which IC50 [1] did it give?
Answer: Its IC50 is less than 0.1 µmol/L.

Question: And the IC50 (PDE4Bcat)?
Answer: The IC50 was 1 to 10 µmol/L.

Question: For `COc1ccc(C2=NN(CCCCOc3ccc(C4=NNC(=O)CC4C)cc3)C(=O)CC2C)c2sc(C(F)(F)F)nc12` (stereo not shown) [Example 313, 6-(4-Methoxy-2-trifluoromethylbenzothiazol-7-yl)-5-methyl-2-[4-[4-(4-methyl-6-oxo-1,4,5,6-tetrahydropyridazin-3-yl)phenoxy]butyl]-4,5-dihydro-2H-pyridazin-3-one], which IC50 [1] is on record?
Answer: The IC50 was 0.1 to 1 µmol/L.

Question: And the IC50 (PDE4Bcat)?
Answer: The IC50 was less than 0.1 µmol/L.

Question: Which results are given for `COc1ccc(-c2ccc(=O)n(CCCCOc3ccc(C4=NNC(=O)CC4C)cc3)n2)c2ccc(C(F)(F)F)nc12` (stereo not shown) [Example 321, 6-(8-Methoxy-2-trifluoromethylquinolin-5-yl)-2-[4-[4-(4-methyl-6-oxo-1,4,5,6-tetrahydropyridazin-3-yl)phenoxy]butyl]-2H-pyridazin-3-one]?
Answer: IC50 [1]: 0.1 to 1 µmol/L; IC50 (PDE4Bcat): 0.1 to 1 µmol/L

Question: Which IC50 [1] does the source give for `CCc1ccc2c(-c3ccc(=O)n(CCOc4ccc(C5=NNC(=O)CC5C)c(F)c4F)n3)ccc(OC)c2n1` (stereo not shown) [Example 324, 6-(2-Ethyl-8-methoxyquinolin-5-yl)-2-[2-[2,3-difluoro-4-(4-methyl-6-oxo-1,4,5,6-tetrahydropyridazin-3-yl)phenoxy]ethyl]-2H-pyridazin-3-one] here?
Answer: The IC50 was less than 0.1 µmol/L.

Question: And the IC50 (PDE4Bcat)?
Answer: The IC50 was 0.1 to 1 µmol/L.

Question: With `CCc1ccc2c(-c3ccc(=O)n(CCCOc4ccc(C5=NNC(=O)CC5C)c(F)c4F)n3)ccc(OC)c2n1` (stereo not shown) [Example 325, 6-(2-Ethyl-8-methoxyquinolin-5-yl)-2-[3-[2,3-difluoro-4-(4-methyl-6-oxo-1,4,5,6-tetrahydropyridazin-3-yl)phenoxy]propyl]-2H-pyridazin-3-one] as the molecule, how does the IC50 [1] read?
Answer: Its IC50 is 0.1 to 1 µmol/L.

Question: What about the IC50 (PDE4Bcat) of the same molecule?
Answer: Its IC50 is 0.1 to 1 µmol/L.

Question: `CCc1ccc2c(-c3ccc(=O)n(CCCOc4ccc(C5=NNC(=O)CC5)c(F)c4F)n3)ccc(OC)c2n1` [Example 326, 6-(2-Ethyl-8-methoxyquinolin-5-yl)-2-[3-[2,3-difluoro-4-(6-oxo-1,4,5,6-tetrahydropyridazin-3-yl)phenoxy]propyl]-2H-pyridazin-3-one] was tested. Which IC50 [1] did it give?
Answer: Its IC50 is 1 to 10 µmol/L.

Question: And the IC50 (PDE4Bcat)?
Answer: Its IC50 is 1 to 10 µmol/L.
